Reference: patent US6818656B2, “Method and composition for treatment of irritable bowel disease” (University of Florida, priority 2001, dated 2004)

How the values were obtained:
[1] = system: stress-induced fecal output; assay: Psychological stress-induced (water avoidance) IBS model, SC administration; type: in vivo; settings: for Stool Output: 6-h collection
From the text: (§1) For drug preparation and administration, the compounds were put into solution with sterile normal saline and sonicated briefly, if necessary. The drugs were made up at concentrations such that the rats received the drugs PO or SC at the rate of 1 cc per kilogram. Mice received the CHX(3,4,3)-trans IP at 1 cc per 100 grams. The solutions were made fresh the day of the study. Control animals received an equivalent amount of saline PO or SC.
Animal care and experimental procedures were approved by the Institutional Animal Care and Use Committee. Male Sprague-Dawley rats (250-350 g, Harlan Sprague-Dawley, Indianapolis, Ind.) were housed in polycarbonate cages in a temperature- and humidity-controlled room with a 12-hour light/dark cycle. The experiments were performed at the same time of the day to decrease diurnal variability. A typical experiment involved 20 rats: 5 saline-treated controls and 5 pretreated with polyamine analogues at each of three doses as either a SC injection or a PO gavage. The rats in the SC studies and in one set of experiments involving PO administration were allowed ad libitum access to a standard rodent diet and tap water until the morning of the experiment. Stress was initiated 30 minutes post drug as described below. In another set of experiments involving PO administration, the animals were fasted overnight but were allowed free access to water. […] In a final experiment, non-stressed control rats were injected with saline SC and housed in individual polycarbonate cages. The fecal output (number of pellets) of the stressed and unstressed animals was recorded at 30-min intervals for a 6-h period, during which they received no food or water.
(§2) To initiate the stress, water was added to each cage to a depth of at least 4.5 cm, i.e., within 0.5 cm of the top of the Pyrex dish. To avoid contact with water, the rats stand on the glass dish for the 6 h of the study. Stool output was expressed as the total number of fecal pellets excreted over the 6-h collection period. Percent reduction was calculated by dividing the mean value from the treated animals (T) by the mean value from the control animals (C), subtracting the resulting quotient from 1.0, and multiplying by 100 [i.e., (1.0−T/C)×100].
(§3) A one-tailed t-test assuming unequal variance was performed on the stool output data of the treated vs control (0 mg/kg) animals for each compound. A value of P<0.05 was considered significant.
The psychological stress-induced IBS model involves subjecting the rats to an aversive stimulus (water) and observing the increase in fecal output over a period of time. […] Control rats received an equivalent amount of saline SC.

[2] = system: stress-induced fecal output; assay: Psychological stress-induced (water avoidance) IBS model, PO administration by gavage; type: in vivo, rat; settings: for oral activity against stress-induced fecal output (in words): PO gavage, non-fasted rats, 11.6-115.6 μmol/kg; for Stool Output: 6-hr collection; for % Reduction: vs stressed controls, 6 hr
From the text: as §1
Animal care and experimental procedures were approved by the Institutional Animal Care and Use Committee. Male Sprague-Dawley rats (250-350 g, Harlan Sprague-Dawley, Indianapolis, Ind.) were housed in polycarbonate cages in a temperature- and humidity-controlled room with a 12-hour light/dark cycle. The experiments were performed at the same time of the day to decrease diurnal variability. A typical experiment involved 20 rats: 5 saline-treated controls and 5 pretreated with polyamine analogues at each of three doses as either a SC injection or a PO gavage. The rats in the SC studies and in one set of experiments involving PO administration were allowed ad libitum access to a standard rodent diet and tap water until the morning of the experiment. Stress was initiated 30 minutes post drug as described below. In another set of experiments involving PO administration, the animals were fasted overnight but were allowed free access to water. The animals were then stressed from ½ h to 2 h post-drug (data not shown). In a final experiment, non-stressed control rats were injected with saline SC and housed in individual polycarbonate cages. The fecal output (number of pellets) of the stressed and unstressed animals was recorded at 30-min intervals for a 6-h period, during which they received no food or water.
as §2, with “Once the drug had been administered, the animals were housed individually in polycarbonate cages containing a clear 70×50 mm Pyrex crystallization dish (Fisher, Pittsburgh, Pa.) inverted in the center and held in place with vacuum grease. To initiate” for “To initiate”
as §3
Because an orally active compound would be desirable for the treatment of IBS, selected analogues utilizing oral administration in the same model were assessed. In the initial studies animals were utilized that had been fasted overnight. Rodents were then given the drug of interest PO by gavage and stressed ½ h, 1 h, or 2 h post-drug. Unfortunately, because of the low baseline stool output in fasted control rats, the reductions in fecal output observed upon drug administration cannot be reported with any confidence (data not shown). Thereafter, only non-fasted animals were employed and were given the agents by gavage at doses of 11.6, 23.2, 57.8, or 115.6:mol/kg 30 minutes before initiating the stress. […] At doses of 11.6 and 23.2:mol/kg, CHX(3,4,3)-trans reduced stooling by about 80% (P=0.001 and <0.001, respectively). DEHSPM was effective at a dose of […]:mol/kg (40% diminution of fecal output; P<0.01), and DE(5,4,5) was active at doses of 23.2 and 57.8:mol/kg (55 and 73% reductions in fecal output, respectively; P<0.001 for both doses).

[3] = system: castor oil-induced diarrhea; settings: doses equivalent to a 5 mg/kg dose of DEHSPM; cited from earlier work
[4] = 2.3 μmol/kg SC, stress 30 min post drug
[5] = Rattus norvegicus, 2.3 μmol/kg SC, vs stressed controls, 6 h, read-out: % Reduction
[6] = Rattus norvegicus, 11.6 μmol/kg SC, vs stressed controls, 6 h, read-out: % Reduction
[7] = Rattus norvegicus, 23.2 μmol/kg SC, vs stressed controls, 6 h, read-out: % Reduction
[8] = Rattus norvegicus, 57.8 μmol/kg SC, vs stressed controls, 6 h, read-out: % Reduction

Structure (SMILES) | Stool Output [1, 4] | Stool Output ([1]; 11.6 μmol/kg SC) | Stool Output ([1]; 57.8 μmol/kg SC) | Stool Output ([1]; 23.2 μmol/kg SC) | inhibition in vivo at 11.6 µmol/kg [1, 6] [%] | inhibition in vivo at 57.8 µmol/kg [1, 8] [%] | further results
CC(C)NCCCNCCCNCCCNC(C)C [Compound 2] | 17.6 ± 5.5 number of fecal pellets | 13.6 ± 3.2 number of fecal pellets | 7.4 ± 3.6 number of fecal pellets |  |  |  | activity at diminishing stress-induced fecal output (in words) ([1]; SC administration to stressed rats): ineffective
CCCNCCCNCCCCNCCCNCCC [Compound 4] | 11.4 ± 7.2 number of fecal pellets | 11.5 ± 8.7 number of fecal pellets | 0.2 ± 0.4 number of fecal pellets | 5.7 ± 4.1 number of fecal pellets | 48 | 99 | inhibition in vivo at 2.3 µmol/kg [1, 5]: 49%; inhibition in vivo at 23.2 µmol/kg [1, 7]: 74%
CC(C)NCCCNCCCCNCCCNC(C)C [Compound 6, N^1,N^12 diisopropylspermine] |  | 1.6 ± 1.8 number of fecal pellets |  |  | 90 |  | Stool Output ([1]; 5.8 μmol/kg SC): 4.6 ± 2.3 number of fecal pellets; inhibition in vivo at 5.8 µmol/kg ([1]; Rattus norvegicus, 5.8 μmol/kg SC, vs stressed controls, 6 h, read-out: % Reduction): 70%; oral activity against stress-induced fecal output (in words) [2]: only CHX(3,4,3)-trans, DEHSPM, and DE(5,4,5) showed any activity at all
CC(C)CNCCCNCCCCNCCCNCC(C)C [Compound 7] | 15.9 ± 5.7 number of fecal pellets | 12.2 ± 2.7 number of fecal pellets |  | 6.6 ± 3.1 number of fecal pellets | 34 |  | toxic effects observed in stressed rats ([1]; 23.2 μmol/kg SC): ^gToxic effects were evident, including huddling in the corner of the cage.; inhibition in vivo at 23.2 µmol/kg [1, 7]: 64%; neurotoxicity in rats at subtherapeutic doses [3]: Signs of neurotoxicity
CC(C)CNCCCNCCCCNCCCN [Compound 8] | 14.8 ± 3.8 number of fecal pellets | 11.2 ± 2.2 number of fecal pellets |  | 10.6 ± 2.9 number of fecal pellets | 47 |  | toxic effects observed in stressed rats ([1]; 23.2 μmol/kg SC): ^gToxic effects were evident, including huddling in the corner of the cage.; inhibition in vivo at 2.3 µmol/kg [1, 5]: 30%; inhibition in vivo at 23.2 µmol/kg [1, 7]: 50%
c1ccc(CNCCCNCCCCNCCCNCc2ccccc2)cc1 [Compound 10] | 12.6 ± 4.8 number of fecal pellets | 11.6 ± 2.9 number of fecal pellets | 8.4 ± 1.5 number of fecal pellets |  |  | 55 | 
FC(F)(F)c1ccccc1CCNCCCNCCCCNCCCNCCc1ccccc1C(F)(F)F [Compound 11] | 12.4 ± 2.1 number of fecal pellets | 13.6 ± 5.1 number of fecal pellets |  | 11.4 ± 2.1 number of fecal pellets |  |  | 
CCNCCCCCNCCCCNCCCCCNCC [Compound 14, N,N′-bis[5-(ethylamino)pentyl]-1,4-butanediamine] | 13.2 ± 6.3 number of fecal pellets | 2.2 ± 3.3 number of fecal pellets | 0 ± 0 number of fecal pellets |  | 88 | 100 | Stool Output ([2]; 11.6 μmol/kg PO): 15.2 ± 8.5 number of fecal pellets; Stool Output ([2]; 23.2 μmol/kg PO): 8.6 ± 4.9 number of fecal pellets; % Reduction ([2]; 23.2 μmol/kg PO): 55%; Stool Output ([2]; 57.8 μmol/kg PO): 5.1 ± 3.1 number of fecal pellets; % Reduction ([2]; 57.8 μmol/kg PO): 73%
C(CCNCCC1CCNCC1)CNCCC1CCNCC1 [Compound 15, N,N′-bis[2-(4-piperidinyl)ethyl]-1,4-diaminobutane] |  |  | 2.0 ± 2.0 number of fecal pellets |  |  | 82 | Stool Output ([1]; 2.32 μmol/kg SC): 8.8 ± 1.6 number of fecal pellets; Stool Output ([1]; 11.57 μmol/kg SC): 8.2 ± 3.1 number of fecal pellets; oral activity against stress-induced fecal output (in words) [2]: only CHX(3,4,3)-trans, DEHSPM, and DE(5,4,5) showed any activity at all
CCNCCCCCCNCCCNCCCNCC [Compound 16] |  |  | 0.4 ± 0.9 number of fecal pellets |  |  | 97 | Stool Output ([1]; 2.31 μmol/kg SC): 10.4 ± 5.2 number of fecal pellets; Stool Output ([1]; 11.56 μmol/kg SC): 9.4 ± 4.1 number of fecal pellets; toxic effects observed in stressed rats ([1]; 57.8 μmol/kg SC): ^iThe rats were quite lethargic, as though sedated, after drug administration.
CC(C)NCCCCCCNCCCNCCCNC(C)C [Compound 17] |  |  | 0 ± 0 number of fecal pellets |  |  | 100 | toxic effects observed in stressed rats ([1]; 2.32 μmol/kg SC): ^iThe rats were quite lethargic, as though sedated, after drug administration.; Stool Output ([1]; 2.32 μmol/kg SC): 1.4 ± 1.9 number of fecal pellets; toxic effects observed in stressed rats ([1]; 11.56 μmol/kg SC): ^iThe rats were quite lethargic, as though sedated, after drug administration.; Stool Output ([1]; 11.56 μmol/kg SC): 0 ± 0 number of fecal pellets; toxic effects observed in stressed rats ([1]; 57.8 μmol/kg SC): ^iThe rats were quite lethargic, as though sedated, after drug administration.; inhibition in vivo at 2.32 µmol/kg ([1]; Rattus norvegicus, 2.32 μmol/kg SC, vs stressed controls, 6 h, read-out: % Reduction): 84%; inhibition in vivo at 11.56 µmol/kg ([1]; Rattus norvegicus, 11.56 μmol/kg SC, vs stressed controls, 6 h, read-out: % Reduction): 100%
